Experimental data from article PMC8125647, “A Validated LC–MS/MS Assay for the Simultaneous Quantification of the FDA-Approved Anticancer Mixture (Encorafenib and Binimetinib): Metabolic Stability Estimation” (Molecules, 2021).
Read-outs that look alike come from different tables or passages of the source.

Key:
[1] = Metabolic stability after incubation with human liver microsomes (LC-MS/MS); type: in vitro ADME; conditions: for Slope (rate constant of disappearance, ln % remaining vs time): HLM; for half-life at 1 µM / microsomal CLint at 1 µM: human, human liver microsomes, HLM 1 mg/mL; for half-life at 1 µM: NADPH 1 mM, 37 °C, read-out: in vitro t1/2 (half-life); for microsomal CLint at 1 µM: read-out: CLint (intrinsic clearance)
Procedure: The slope of each regression equation was used to estimate the in vitro t1/2 using the following equations:(1) In vitro t 1/2=ln2/slope (2) In vitro t 1/2=0.693/slope
Similarly, the CLint of ENF and BNB was calculated following the in vitro t1/2 method (15) using the following equation:(3) CLint, =0.693/in vitro t 1/2. µL incubation/mg microsomes (4) CLint, =0.693/in vitro t 1/2. 1000 /1
BNB and ENF concentration during HLM incubation was adjusted to 1 µM to ensure that it was less than the Michaelis–Menten constant and constructed a linear relationship between the ratio of metabolism and incubation time. HLMs (1 mg/mL) in phosphate buffer were used to confirm the absence of nonspecific protein binding. We performed metabolic stability assessments for ENF and BNB by measuring the decrease in ENF and BNB concentrations after incubation with an HLM matrix. One micromole from ENF and BNB was incubated with HLM (1 mg protein in 1 mL phosphate buffer) in triplicate. The metabolic reaction medium was phosphate buffer (pH 7.4) containing 3.3 mM MgCl2. The metabolic mixture was pre-incubated in a 37 °C water bath for 10 min for temperature conditioning. NADPH (1 mM) was used for the initiation of the metabolic reaction, after which 2 mL ACN was used to terminate the reaction at specific time intervals (0, 1, 2.5, 7.5, 15, 30, and 50 min), allowing us to establish metabolic stability curves for ENF and BNB. We conducted this metabolic experiment for ENF alone, BNB alone, and a mixture of ENF and BNB to evaluate the metabolic stability of BNB and ENF alone and combined. The proportion of BNB and ENF remaining either alone or combined was plotted versus incubation time. From this plot, time points in the linear range were selected to plot the natural logarithm (ln) of the remaining proportions of ENF and BNB versus time. The slope of the linear part indicated the rate constant for ENF and BNB disappearance that was used for in vitro t1/2 calculation using equation (1). Then, ENF and BNB CLint values, either alone or combined, were calculated by applying the following Equation (3).

[2] = Solubility in DMSO (stock preparation); type: physicochemical; conditions: stocks at 1 mg/mL
Procedure: We subsequently conducted serial dilution of the stock solutions with the optimized mobile phase to obtain stocks (S1) for ENF and BNB at a 100 µg/mL concentration. The S1 stocks were then serially diluted with mobile phase to obtain stocks (S2) for ENF and BNB at a 10 µg/mL concentration. The AVB stock was dissolved in DMSO to obtain a 100 µg/mL concentration that was then serially diluted with the mobile phase to obtain a stock (S3) of AVB at a 1 µg/mL concentration.

[3] = Stability in deactivated HLM matrix under laboratory storage conditions; type: physicochemical
Procedure: We evaluated the stability of ENF and BNB in deactivated HLM matrix (1 mg protein/1 mL phosphate buffer) under common laboratory storage conditions. Analyte stability evaluation was performed in different conditions: Room temperature for 8 h, three freeze–thaw cycles, storage at 4 °C for 24 h, and storage at −20 °C for 30 d. Measured values were 96.55–101.64% for ENF and 96.79–100.05% for BNB. Stability data for ENF and BNB are described in Table 4. […] The stability data reveal that the LC–MS/MS method could be successfully used for assaying ENF and BNB without noticeable loss.
The accuracy and precision of the proposed method were investigated inter- and intra-day. The intra- and inter-day accuracy and precision values were calculated according to USFDA guidelines. The stability of ENF and BNB in different conditions, room temperature for 8 h, three freeze–thaw cycles, and storage at 4 °C for 24 h and at −20 °C for 30 d, were examined.

[4] = pH 7.4, in mixture of ENF and BNB
[5] = room temperature for 8 h, 15 ng/mL
[6] = room temperature for 8 h, 150 ng/mL
[7] = room temperature for 8 h, 400 ng/mL
[8] = stored at 4 °C for 24 h, 400 ng/mL
[9] = stored at −20 °C for 30 days, 15 ng/mL
[10] = stored at −20 °C for 30 days, 150 ng/mL
[11] = stored at −20 °C for 30 days, 400 ng/mL
[12] = three freeze–thaw cycles, 15 ng/mL
[13] = three freeze–thaw cycles, 150 ng/mL
[14] = three freeze–thaw cycles, 400 ng/mL

Row | Slope (rate constant of disappearance, ln % remaining vs time) ([1]; drug alone) | half-life at 1 µM ([1]; pH 7.4, drug alone) | microsomal CLint at 1 µM ([1]; pH 7.4, drug alone) | half-life at 1 µM [1, 4] | microsomal CLint at 1 µM [1, 4] | Slope (rate constant of disappearance, ln % remaining vs time) ([1]; in mixture of ENF and BNB) | Solubility in DMSO [2] | Recovery % [3, 5] | Recovery % [3, 6] | Recovery % [3, 7] | Recovery % ([3]; stored at 4 °C for 24 h, 15 ng/mL) | Recovery % ([3]; stored at 4 °C for 24 h, 150 ng/mL) | Recovery % [3, 8] | Recovery % [3, 9] | Recovery % [3, 10] | Recovery % [3, 11] | Recovery % [3, 12] | Recovery % [3, 13] | Recovery % [3, 14] | Stability, measured values over all storage conditions ([3]; room temperature 8 h, three freeze–thaw cycles, 4 °C 24 h, −20 °C 30 d) | Structure (SMILES)
1 | 0.0115 | 60.3 min | 11.5 µL/min/mg | 58.2 min | 11.9 µL/min/mg | 0.0119 | freely soluble | 99.25% | 98.25% | 98.85% | 100.05% | 97.59% | 99.33% | 96.72% | 97.72% | 98.78% | 98.32% | 96.79% | 97.48% |  | Cn1cnc2c(F)c(Nc3ccc(Br)cc3F)c(C(=O)NOCCO)cc21 [BNB, binimetinib]
2 | 0.0161 | 43.1 min | 16.1 µL/min/mg | 45.9 min | 15.1 µL/min/mg | 0.0151 | freely soluble | 101.64% | 100.55% | 101.46% |  |  | 98.21% | 100.18% | 96.55% | 98.41% | 97.37% | 97.22% | 99.66% | 96.55–101.64% | COC(=O)N[C@@H](C)CNc1nccc(-c2cn(C(C)C)nc2-c2cc(Cl)cc(NS(C)(=O)=O)c2F)n1 [ENF, encorafenib]
3 |  |  |  |  |  |  | freely soluble |  |  |  |  |  |  |  |  |  |  |  |  |  | C=CC(=O)Nc1cccc(Oc2nc(Nc3ccc(N4CCN(C)CC4)c(F)c3)nc3[nH]ccc23)c1 [AVB, avitinib]
